# Test results: paper PMC6710338, “Turning a Collagenesis-Inducing Peptide Into a Potent Antibacterial and Antibiofilm Agent Against Multidrug-Resistant Gram-Negative Bacteria” (Frontiers in Microbiology, 2019)
# “And” between values parts separate entries of the source, which are not always exact repeats. Identical values can stand only once. Like-named read-outs stand apart in the source and are kept apart here. Peptide text beside a SMILES is read from it.
# How the values were obtained:
# P. aeruginosa ATCC 27853 = test: MIC, broth microdilution (CLSI), ATCC reference strain; format: cell-based, Pseudomonas aeruginosa
# Procedure: (§1) The minimum inhibitory concentration (MIC) of synthetic peptides was determined using the broth microdilution method in cation-adjusted Mueller-Hinton broth (MHB2 – Sigma-Aldrich, St. Louis, MO, United States), according to the recommendations of the Clinical and Laboratory Standards Institute ([CLSI, 2012]), against four reference strains, namely, P. aeruginosa ATCC 27853, E. coli ATCC 25922, S. aureus ATCC 25923 and Enterococcus faecalis ATCC 29212. MIC values of peptide 3.1-PP4 were also determined against MDR clinical isolates of P. aeruginosa (PA002, PA004, Pa3, Pa4), E. coli (Ec1, Ec2, EC001, EC002, EC003) and K. pneumoniae (KP004, KP007, KP010). The peptides were tested in the concentration range of 1–1024 μg/mL. The minimum bactericidal concentration (MBC) was determined as previously reported ([Bessa et al., 2018]). According to CLSI guidelines for antimicrobial susceptibility testing, MIC values were determined for all peptides against ATCC reference strains of two Gram-positive (S. aureus ATCC 25923 and E. faecalis ATCC 29212), and two Gram-negative (P. aeruginosa ATCC 27853 and E. coli ATCC 25922) bacterial species, and are shown in Table 2.
# [1] = system: MDR clinical isolates of P. aeruginosa (PA002, PA004, Pa3, Pa4); format: cell-based, Pseudomonas aeruginosa
# Procedure: as §1, with “2018]).” for “2018]). According to CLSI guidelines for antimicrobial susceptibility testing, MIC values were determined for all peptides against ATCC reference strains of two Gram-positive (S. aureus ATCC 25923 and E. faecalis ATCC 29212), and two Gram-negative (P. aeruginosa ATCC 27853 and E. coli ATCC 25922) bacterial species, and are shown in Table 2.”
# In view of the above results, peptide conjugate 3.1-PP4 was selected for further investigation of its activity against MDR isolates of three Gram-negative bacterial species, namely, P. aeruginosa (four isolates), E. coli (five isolates), and K. pneumoniae (four isolates), whose antimicrobial resistance patterns are provided in the Supplementary Table S1. MDR isolates of K. pneumoniae were included in this analysis given (i) the high prevalence of K. pneumoniae in HAI ([Zheng et al., 2017]), (ii) that K. pneumoniae isolates used are carbanepem-resistant strains of an Enterobacteriaceae species, meaning that they are class 1 priority pathogens for the research and development of new antibiotics according to the WHO ([WHO, 2017]), and (iii) K. pneumoniae bacteria are usually better biofilm producers than the other Enterobacteriaceae species used, E. coli ([Reisner et al., 2006]). MIC values obtained are shown in Table 3, and confirm peptide’s 3.1-PP4 potent action against Gram-negative bacteria, including MDR isolates, with a selectivity index (SI), i.e., ratio of IC50 values for mammalian vs. bacterial cells, ranging from ca. 9–69. In fact, for P. aeruginosa and E. coli, MIC against MDR isolates were in the same range, or below, of those previously found for ATCC reference strains (Table 2). For K. pneumoniae, MIC values ranged between 1 and 4 μM, which is remarkable.
# [2] = system: preformed biofilm of MDR P. aeruginosa PA004; test: Biofilm metabolic activity (MTT); format: cell-based, Pseudomonas aeruginosa; conditions: isolate PA004, 24 h preformed biofilm, 20 × MIC, 24 h at 37°C, absorbance 570 nm
# Procedure: The respective control biofilms were equally formed but in absence of the peptide (only TSB medium was used). Afterward, the bacterial metabolic activity of biofilms was quantified after adding 3-(4,5-dimethylthiazole-2-yl)-2,5-diphenyl tetrazolium bromide (MTT, 0.5 mg/mL – Sigma-Aldrich, St. Louis, MO, United States) for 3 h at 37°C in the dark. DMSO was used to dissolve the formazan crystals formed and the absorbance at 570 nm was measured. Two independent experiments were performed in four replicates.
# The influence of the peptide on the metabolic activity of preformed biofilms of one P. aeruginosa (PA004) and three K. pneumoniae (KP004, KP007, and KP010) isolates was also assessed, through a standard MTT assay.
# [3] = system: biofilms of PA004, KP007, and KP010; test: CLSM imaging of biofilms after Live/Dead staining; format: cell-based, P. aeruginosa and K. pneumoniae; conditions: qualitative
# Procedure: For confocal laser scanning microscopy (CLSM) imaging, 24 h biofilms of PA004, KP007, and KP010 were formed in μ-Dish (35 mm, high), ibidi Polymer Coverslips (ibidi GmbH, Planegg-Martinsried, Germany) as previously described by [Bessa et al. (2018)]. Biofilms were non-treated – controls (only medium was used) or treated with 3.1-PP4 at a concentration of 20 × MIC. After 24 h, all biofilms were stained using the LIVE/DEAD^TM BacLight^TM bacterial viability kit (Molecular Probes, Thermo Fisher Scientific, MA, United States). Biofilms were visualized under a laser scanning confocal system Leica TCS SP5 II (Leica Microsystems, Germany), equipped with an inverted (i) microscope Leica DMI6000-CS, using a HC PL APO CS 63x/1.30 Glycerine 21°C objective and the lasers Diode 405 nm and DPSS561 561 nm, and (ii) the LAS AF software.
# To gain further insight into the peptide’s effects on the bacterial biofilms, a Live/Dead staining assay using CLSM was carried out, where untreated and peptide-treated biofilms delivered the images depicted in Figure 2. […] Noteworthy, only bacterial cells, not biofilm matrix, are stained when the Live/Dead staining is used, which means that only cells within the biofilm are observed.
structure (smiles),measurement,setting,value
CC(C)C[C@H](NC(=O)[C@H](Cc1c[nH]c2ccccc12)NC(=O)[C@H](CCCCN)NC(=O)[C@H](CC(C)C)NC(=O)[C@H](CC(C)C)NC(=O)[C@H](CCCCN)NC(=O)[C@@H](N)CCCCN)C(=O)N[C@@H](CC(C)C)C(=O)N[C@@H](CCCCN)C(=O)N[C@@H](CC(C)C)C(=O)N[C@@H](CC(C)C)C(=O)N[C@@H](CCCCN)C(=O)N[C@H](C(=O)N[C@H](C(=O)N[C@@H](CCCCN)C(=O)N[C@@H](CO)C(N)=O)[C@@H](C)O)[C@@H](C)O [Peptide 3.1-PP4] (H-KKLLKWLLKLLKTTKS-NH2; N-terminus assumed),MIC,P. aeruginosa ATCC 27853; ATCC 27853,2.1 µM
same,MIC,"P. aeruginosa ATCC 27853; P. aeruginosa ATCC 27853, broth microdilution in MHB2, CLSI, range tested 1–1024 μg/mL",4 mg/L
same,MIC,"P. aeruginosa ATCC 27853; P. aeruginosa ATCC 27853, broth microdilution in MHB2, CLSI, value in parentheses",2 µM
same,MIC,"[1]; MDR P. aeruginosa isolate PA002, MHB2",4 µg/mL
same,MIC,"[1]; MDR P. aeruginosa isolate PA004, MHB2",2 μg/mL and 1 μM
same,MIC,"[1]; MDR P. aeruginosa isolate Pa3, MHB2",2 μg/mL and 1 μM
same,MIC,"[1]; MDR P. aeruginosa isolate Pa4, MHB2",2 μg/mL and 1 μM
same,MIC,"[1]; MDR clinical isolates of (PA002, PA004, Pa3, Pa4)",2 µM
same,% reduction of metabolic activity in peptide-treated biofilms,[2],8.3%
same,"ratio of red- to green-stained bacterial cells (Live/Dead, CLSM)","[3]; 24 h biofilms of PA004, KP007, KP010 treated 24 h at 20 × MIC, vs untreated",consistently higher in peptide-treated
same,"impact on biofilm (Live/Dead, CLSM)","[3]; isolate KP010, 24 h biofilm treated 24 h at 20 × MIC",significant biofilm disaggregation
